Here are results for 14 compounds from patent US20240246964A1 (Arbutus Biopharma Corporation, priority 2021, published 2024).

Assay [1] deals with human PD-L1 (Homo sapiens (Human), UniProt Q9NZQ7). In words: T cell activation luciferase reporter cell culture system (T Cell Activation Assay). Type of assay: cell-based. The note with it: luciferase reporter assay; PD-L1 aAPC/CHO-K1 cells with PD-1 effector Jurkat T cells. (In general: A reporter such as luciferase makes a cellular process visible.)
Sequence of human PD-L1 (Q9NZQ7 19-290): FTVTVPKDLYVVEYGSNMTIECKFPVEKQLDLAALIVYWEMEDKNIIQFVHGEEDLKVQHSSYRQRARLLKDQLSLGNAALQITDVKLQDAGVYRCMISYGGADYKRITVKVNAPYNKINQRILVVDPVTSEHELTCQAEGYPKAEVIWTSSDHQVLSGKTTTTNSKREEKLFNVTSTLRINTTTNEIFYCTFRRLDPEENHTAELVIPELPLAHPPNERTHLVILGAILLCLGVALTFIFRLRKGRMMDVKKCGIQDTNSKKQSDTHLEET
For assay [2], the target named is PD-L1 His protein / PD-1 Fc protein (Homo sapiens (Human), UniProt Q9NZQ7). In words: HTRF Assay (PD-1/PD-L1 interaction). The note with it: PD-L1 His 6 nM, PD-1 Fc 6 nM. Type of assay: binding.
Sequence of PD-L1 His protein / PD-1 Fc protein (Q9NZQ7 19-238): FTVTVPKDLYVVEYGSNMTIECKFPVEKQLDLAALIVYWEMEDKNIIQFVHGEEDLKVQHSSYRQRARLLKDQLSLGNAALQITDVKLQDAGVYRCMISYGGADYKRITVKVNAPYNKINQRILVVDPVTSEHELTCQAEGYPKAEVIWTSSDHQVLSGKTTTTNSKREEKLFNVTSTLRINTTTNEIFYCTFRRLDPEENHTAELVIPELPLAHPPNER

A word on the EC50: it is the concentration giving half of the maximal effect. Usually IC50 stands for the concentration that gives 50% inhibition. A higher IC50 goes with weaker potency. `CNCc1ccc(-c2cccc(-c3ccnc(-c4cc(CNCC56CC(C(=O)O)(C5)C6)cc(OC)c4)c3Cl)c2Cl)nc1OC` [Compound 175, 3-(((3-(3-chloro-4-(2-chloro-3-(6-methoxy-5-((methylamino)methyl)pyridine-2-yl)phenyl)pyridine-2-yl)-5-methoxybenzyl)amino)methyl)bicyclo[1.1.1]pentane-1-carboxylic acid] had an EC50 in assay [1] of 1160 nM. Further, the IC50 in assay [2] was found to be 8.73 nM.

With `COc1cc(-c2nccc(-c3cccc(-c4cc(F)c(CNC[C@@H]5CCC(=O)N5)c(OC)n4)c3Cl)c2Cl)cc2c1CN(C[C@H](C)O)CC2` [Compound 176, (S)-5-((((6-(2-chloro-3-(3-chloro-2-(2-((S)-2-hydroxypropyl)-8-methoxy-1,2,3,4-tetrahydroisoquinolin-6-yl)pyridine-4-yl)phenyl)-4-fluoro-2-methoxypyridin-3-yl)methyl)amino)methyl)pyridine1334ne-2-one], in assay [1], a half-maximal response (EC50) required 9.99 nM. In addition, it took 1.05 nM to reach half-maximal inhibition in assay [2] (IC50).

For `COc1nc(-c2cccc(-c3ccnc(-c4ccc5c(c4)S(=O)(=O)CCNC5)c3Cl)c2Cl)ccc1CNC[C@@H]1CCC(=O)N1` [Compound 177, (S)-5-((((6-(2-chloro-3-(3-chloro-2-(1,1-dioxido-2,3,4,5-tetrahydrobenzo[f][1,4]pyridine1334n-8-yl)pyridine-4-yl)phenyl)-2-methoxypyridin-3-yl)methyl)amino)methyl)pyridine1334ne-2-one], the EC50 in assay [1] came to 176 nM. The same compound showed an IC50 in assay [2] of 1.76 nM.

Take `COc1nc(-c2cccc(-c3ccnc(-c4ccc5c(c4)CN(CCNC[C@@H]4CCC(=O)N4)C5=O)c3Cl)c2Cl)cc(F)c1CNC[C@@H]1CCC(=O)N1` [Compound 178, 5-(3-chloro-4-(2-chloro-3-(4-fluoro-6-methoxy-5-(((((S)-5-oxopyrrolidin-2-yl)methyl)amino)methyl)pyridine-2-yl)phenyl)pyridine-2-yl)-2-(2-((((S)-5-oxopyrrolidin-2-yl)methyl)amino)ethyl)isoindolin-1-one]: the midpoint of the response in assay [1], the EC50, lay at 144 nM. Also, the 50% inhibitory concentration (IC50) in assay [2] turned out to be 1.25 nM.

On to `COc1cc(-c2nccc(-c3cccc(-c4ccc(CNC[C@@H]5CCC(=O)N5)c(OC)n4)c3Cl)c2Cl)ccc1C1=NCCN1` [Compound 179, (S)-5-((((6-(2-chloro-3-(3-chloro-2-(4-(4,5-dihydro-1H-imidazol-2-yl)-3-methoxyphenyl)pyridine-4-yl)phenyl)-2-methoxypyridin-3-yl)methyl)amino)methyl)pyridine1334ne-2-one], for which the EC50 in assay [1] came out at 30.8 nM. In addition, in assay [2], the concentration for half-maximal inhibition (IC50) amounted to 2.45 nM.

With `COc1cc(-c2nccc(-c3cccc(-c4ccc(C5=NCCN5)c(OC)n4)c3Cl)c2Cl)ccc1CNC[C@@H](O)CC(=O)O` [Compound 180, (S)-4-((4-(3-chloro-4-(2-chloro-3-(5-(4,5-dihydro-1H-imidazol-2-yl)-6-methoxypyridin-2-yl)phenyl)pyridine-2-yl)-2-methoxybenzyl)amino)-3-hydroxybutanoic acid], in assay [1], the 50% effective concentration (EC50) amounted to 35.9 nM. This compound also returned an IC50 in assay [2] of 5.64 nM.

`COc1cc(-c2nccc(-c3cccc(-c4ccc(CNC[C@@H]5CCC(=O)N5)c(OC)n4)c3Cl)c2Cl)cc(F)c1CNC[C@@H]1CCO1` [Compound 181, (S)-5-((((6-(2-chloro-3-(3-chloro-2-(3-fluoro-5-methoxy-4-(((((S)-oxetan-2-yl)methyl)amino)methyl)phenyl)pyridine-4-yl)phenyl)-2-methoxypyridin-3-yl)methyl)amino)methyl)pyridine1335ne-2-one] returned an EC50 in assay [1] of 30.5 nM. Besides, in assay [2], the midpoint of inhibition, the IC50, lay at 11.2 nM.

In the case of `COC(=O)C1CN(Cc2nn3cc(-c4nccc(-c5cccc(-c6ccc(CNC[C@@H]7CCC(=O)N7)c(OC)n6)c5Cl)c4Cl)cc3c(=O)n2C)C1` [Compound 182, methyl (S)-1-((6-(3-chloro-4-(2-chloro-3-(6-methoxy-5-((((5-oxopyrrolidin-2-yl)methyl)amino)methyl)pyridine-2-yl)phenyl)pyridine-2-yl)-3-methyl-4-oxo-3,4-dihydropyrrolo[2,1-f][1,2,4]pyridine-2-yl)methyl)azetidine-3-carboxylate], the concentration for a half-maximal effect (EC50) in assay [1] was 38.7 nM. In assay [2], this compound yielded an IC50 of 2.46 nM.

`COc1nc(-c2cccc(-c3ccnc(-c4ccc5c(CNC[C@@H]6CCC(=O)N6)nn(C)c5c4)c3Cl)c2Cl)ccc1CNC[C@@H]1CCC(=O)N1` [Compound 183, (S)-5-((((6-(2-chloro-3-(3-chloro-2-(1-methyl-3-(((((S)-5-oxopyrrolidin-2-yl)methyl)amino)methyl)-1H-indazol-6-yl)pyridine-4-yl)phenyl)-2-methoxypyridin-3-yl)methyl)amino)methyl)pyridine1335ne-2-one]: in assay [1], the response was half-maximal at 44.9 nM (EC50). The compound also gave an IC50 in assay [2] of 2.95 nM.

`COc1nc(-c2cccc(-c3ccnc(-c4ccc5c(c4)CCC[C@@H]5NC[C@@H]4CCC(=O)N4)c3Cl)c2Cl)ccc1CNC[C@@H]1CCC(=O)N1` [Compound 184, (S)-5-((((6-(2-chloro-3-(3-chloro-2-((S)-5-((((S)-5-oxopyrrolidin-2-yl)methyl)amino)-5,6,7,8-tetrahydronaphthalen-2-yl)pyridine-4-yl)phenyl)-2-methoxypyridin-3-yl)methyl)amino)methyl)pyridine1335ne-2-one] showed an EC50 in assay [1] of 80.4 nM. In addition, in assay [2], the IC50 turned out to be 15.5 nM.

As to `COc1nc(-c2cccc(-c3ccnc(-c4ccc5c(c4)CCC[C@H]5NC[C@@H]4CCC(=O)N4)c3Cl)c2Cl)ccc1CNC[C@@H]1CCC(=O)N1` [Compound 185, (S)-5-((((6-(2-chloro-3-(3-chloro-2-((R)-5-((((S)-5-oxopyrrolidin-2-yl)methyl)amino)-5,6,7,8-tetrahydronaphthalen-2-yl)pyridine-4-yl)phenyl)-2-methoxypyridin-3-yl)methyl)amino)methyl)pyridine1335ne-2-one], in assay [1], the EC50 was 19.3 nM. The same compound displayed an IC50 in assay [2] of 10.1 nM.

In assay [1], `COc1cc(-c2nccc(-c3cccc(-c4ccc5c(OC)c(CNC[C@H](C)O)cc(Cl)c5n4)c3Cl)c2Cl)ccc1CNC[C@@H]1CCC(=O)N1` [Compound 206, (S)-5-(((4-(3-chloro-4-(2-chloro-3-(8-chloro-6-((((S)-2-hydroxypropyl)amino)methyl)-5-methoxyquinolin-2-yl)phenyl)pyridin-2-yl)-2-methoxybenzyl)amino)methyl)pyrrolidin-2-one] yielded an EC50 of 182 nM. In assay [2], this compound showed an IC50 of 0.856 nM.

The compound `COc1cc(-c2nccc(-c3cccc(-c4ccc5c(OC)c(CNC[C@@H]6CCC(=O)N6)cc(Cl)c5n4)c3Cl)c2Cl)ccc1CNC[C@@H]1CCC(=O)N1` [Compound 207, (S)-5-((((8-chloro-2-(2-chloro-3-(3-chloro-2-(3-methoxy-4-(((((S)-5-oxopyrrolidin-2-yl)methyl)amino)methyl)phenyl)pyridin-4-yl)phenyl)-5-methoxyquinolin-6-yl)methyl)amino)methyl)pyrrolidin-2-one] displayed an EC50 in assay [1] of 118 nM. The same compound returned a half-inhibitory concentration (IC50) in assay [2] of 7.66 nM.

`COc1nc(-c2cccc(-c3ccnc(-c4cc(Cl)c5c(c4)CCN(CCC(C)(C)O)C5)c3Cl)c2Cl)ccc1CNC[C@@H]1CCC(=O)N1` [Compound 208, (S)-5-((((6-(2-chloro-3-(3-chloro-2-(8-chloro-2-(3-hydroxy-3-methylbutyl)-1,2,3,4-tetrahydroisoquinolin-6-yl)pyridin-4-yl)phenyl)-2-methoxypyridin-3-yl)methyl)amino)methyl)pyrrolidin-2-one] came in with an EC50 in assay [1] of 82 nM. In assay [2], this compound registered an IC50 of 8.04 nM.
